Laboratory results published in US9562057B2, “(Thieno[2,3-b][1,5]benzoxazepin-4-yl)piperazin-1-yl compounds as dual activity H1 inverse agonists/5-HT2A antagonists” (Eli Lilly and Company, priority 2013, dated 2017).
Counter-ions that a name gives are not always drawn.

Legend:
Adrenergic alpha1B = Adrenergic alpha1B (Homo sapiens, UniProt P35368); experiment: Adrenergic alpha1B binding
From the text: (§1) Further, the compounds of the invention may be tested in binding assays and functional activity assays by well known methods for other physiologically important receptors such as, but not limited to, the hERG channel, other serotonin receptors (specifically 5-HT1B and 5-HT1D receptors, lack of agonist activity at 5-HT2B receptors, 5-HT2C, 5-HT5, 5-HT6, and 5-HT7 receptors), dopaminergic receptors (specifically D1, D2, and D3), GABAA receptors, adrenergic receptors and monoamine transporters.

5-HT6 = 5-HT6 (Homo sapiens, UniProt P50406); experiment: 5-HT6 binding
Chain of 5-HT6 (P50406 whole entry, species assumed): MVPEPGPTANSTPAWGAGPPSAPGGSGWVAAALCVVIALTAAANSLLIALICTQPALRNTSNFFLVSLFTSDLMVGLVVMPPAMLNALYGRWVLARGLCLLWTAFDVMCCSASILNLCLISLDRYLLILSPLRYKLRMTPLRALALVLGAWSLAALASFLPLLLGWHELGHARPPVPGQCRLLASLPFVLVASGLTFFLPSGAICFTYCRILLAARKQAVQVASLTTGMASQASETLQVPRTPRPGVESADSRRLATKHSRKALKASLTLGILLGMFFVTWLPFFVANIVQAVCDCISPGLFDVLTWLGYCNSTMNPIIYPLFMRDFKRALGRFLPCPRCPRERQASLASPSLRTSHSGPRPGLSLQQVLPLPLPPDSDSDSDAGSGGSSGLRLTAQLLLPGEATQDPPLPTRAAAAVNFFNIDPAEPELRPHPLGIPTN
From the text: as §1

Norepinephrine Transport = Norepinephrine Transport (Homo sapiens, UniProt P23975); experiment: Norepinephrine transporter binding
Chain of Norepinephrine Transport (P23975 whole entry): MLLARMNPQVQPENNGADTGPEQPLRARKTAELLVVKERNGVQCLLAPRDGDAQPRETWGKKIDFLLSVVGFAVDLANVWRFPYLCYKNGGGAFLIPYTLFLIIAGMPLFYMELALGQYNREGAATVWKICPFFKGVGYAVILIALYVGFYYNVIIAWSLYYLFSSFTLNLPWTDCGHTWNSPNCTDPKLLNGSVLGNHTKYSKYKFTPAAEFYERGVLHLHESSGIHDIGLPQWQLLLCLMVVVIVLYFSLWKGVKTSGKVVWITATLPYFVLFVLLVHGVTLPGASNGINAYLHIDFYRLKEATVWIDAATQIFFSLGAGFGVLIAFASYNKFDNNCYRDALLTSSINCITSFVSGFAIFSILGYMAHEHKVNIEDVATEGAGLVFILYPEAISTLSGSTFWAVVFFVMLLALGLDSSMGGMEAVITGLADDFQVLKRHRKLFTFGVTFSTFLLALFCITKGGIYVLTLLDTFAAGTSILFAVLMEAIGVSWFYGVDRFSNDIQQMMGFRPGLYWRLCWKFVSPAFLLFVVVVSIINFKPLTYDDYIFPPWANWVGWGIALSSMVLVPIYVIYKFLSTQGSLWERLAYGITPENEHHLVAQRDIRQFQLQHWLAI
From the text: as §1

5-HT2A Receptor = molecular target: T1, 5-HT2A Receptor (Rattus norvegicus, UniProt P14842); experiment: 5-HT2A receptor occupancy in vivo (MDL 100907 tracer); conditions: male Sprague-Dawley rats, oral gavage, 1 hr. before tracer, absolute ED50
T1 construct: samples of the frontal cortex and cerebellum are removed; from tissue; host or cells: rat brain (frontal cortex versus cerebellum), in vivo
T1 sequence (P14842 whole entry): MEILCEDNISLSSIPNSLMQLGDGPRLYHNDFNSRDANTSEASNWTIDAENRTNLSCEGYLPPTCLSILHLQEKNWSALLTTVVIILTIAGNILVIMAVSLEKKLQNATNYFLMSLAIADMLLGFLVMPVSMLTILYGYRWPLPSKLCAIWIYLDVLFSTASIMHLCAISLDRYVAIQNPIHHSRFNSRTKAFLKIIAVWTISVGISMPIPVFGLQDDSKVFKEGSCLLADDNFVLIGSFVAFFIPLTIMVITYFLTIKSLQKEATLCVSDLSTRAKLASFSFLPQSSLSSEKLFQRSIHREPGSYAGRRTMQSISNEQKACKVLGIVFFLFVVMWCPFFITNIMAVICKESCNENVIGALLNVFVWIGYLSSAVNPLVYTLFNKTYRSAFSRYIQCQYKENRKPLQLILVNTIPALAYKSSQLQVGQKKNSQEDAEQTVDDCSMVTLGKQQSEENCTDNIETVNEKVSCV
Procedure: Briefly, male Sprague-Dawley rats (Harlan Sprague-Dawley, Indianapolis, Ind.) weighing approximately 230-280 grams are given ad lib access to food and water until the beginning of the 3-hr. experimental protocol. 1 mg/kg ketanserin (non-selective 5-HT2A antagonist) is used as a positive control to establish assay validity. Test compounds or control are administered by oral gavage in a vehicle comprised of 20% hydroxypropyl beta-cyclodextrin. MDL 100907 ((R)-(+)-α-(2,3-Dimethoxyphenyl)-1-[2-(4-fluorophenyl)ethyl]-4-piperidinemethanol), a selective 5-HT2A antagonist, is used as a tracer. […] It is at the time of tracer administration that RO is considered to be measured. […] The level of MDL 100907 tracer is measured in each cortical and cerebellar sample. RO is calculated using the well-established ratio method which employs a region of high receptor density representative of total binding (frontal cortex) normalized by an area without or with very low levels of receptor (cerebellum). […]
Cortex and cerebellar samples are weighed and placed in conical centrifuge tubes on ice. […] Standards are prepared by adding known quantities of analyte to brain tissue samples from non-treated rats and processing as described above. […]

Adrenergic alpha2C = Adrenergic alpha2C (Homo sapiens, UniProt P18825); experiment: Adrenergic alpha2C binding
Chain of Adrenergic alpha2C (P18825 whole entry): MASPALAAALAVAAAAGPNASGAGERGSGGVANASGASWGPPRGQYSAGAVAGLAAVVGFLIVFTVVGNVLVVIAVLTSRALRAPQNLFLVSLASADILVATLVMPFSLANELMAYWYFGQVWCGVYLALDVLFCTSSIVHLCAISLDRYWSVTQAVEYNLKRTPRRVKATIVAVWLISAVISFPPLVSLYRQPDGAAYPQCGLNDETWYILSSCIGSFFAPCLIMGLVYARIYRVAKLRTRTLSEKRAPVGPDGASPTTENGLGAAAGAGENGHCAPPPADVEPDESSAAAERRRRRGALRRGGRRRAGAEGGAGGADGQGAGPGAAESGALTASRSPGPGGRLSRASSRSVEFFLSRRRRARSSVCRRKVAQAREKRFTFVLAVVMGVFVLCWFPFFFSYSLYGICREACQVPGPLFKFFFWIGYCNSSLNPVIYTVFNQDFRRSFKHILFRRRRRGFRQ
From the text: as §1

Dopamine D3 = Dopamine D3 (Homo sapiens, UniProt P35462); experiment: Dopamine D3 binding
Chain of Dopamine D3 (P35462 whole entry): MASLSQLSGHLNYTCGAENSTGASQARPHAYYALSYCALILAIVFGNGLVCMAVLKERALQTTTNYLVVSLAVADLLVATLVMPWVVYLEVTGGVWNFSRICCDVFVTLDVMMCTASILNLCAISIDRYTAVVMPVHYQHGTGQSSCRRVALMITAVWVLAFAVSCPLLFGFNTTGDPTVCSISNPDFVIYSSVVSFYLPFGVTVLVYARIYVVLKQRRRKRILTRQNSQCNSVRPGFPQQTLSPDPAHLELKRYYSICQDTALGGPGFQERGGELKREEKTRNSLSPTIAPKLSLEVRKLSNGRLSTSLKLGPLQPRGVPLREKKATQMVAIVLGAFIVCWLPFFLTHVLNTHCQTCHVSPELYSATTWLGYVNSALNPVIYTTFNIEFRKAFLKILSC
From the text: as §1

[1] = molecular target: T2, recombinant 5-HT2C receptor (human) (Homo sapiens, UniProt P28335); experiment: 5-HT2C competition binding assay ([125I]-(±)DOI, SPA)
T2 construct: expressed in transfected cells; host or cells: AV-12
T2 sequence (P28335 33-458): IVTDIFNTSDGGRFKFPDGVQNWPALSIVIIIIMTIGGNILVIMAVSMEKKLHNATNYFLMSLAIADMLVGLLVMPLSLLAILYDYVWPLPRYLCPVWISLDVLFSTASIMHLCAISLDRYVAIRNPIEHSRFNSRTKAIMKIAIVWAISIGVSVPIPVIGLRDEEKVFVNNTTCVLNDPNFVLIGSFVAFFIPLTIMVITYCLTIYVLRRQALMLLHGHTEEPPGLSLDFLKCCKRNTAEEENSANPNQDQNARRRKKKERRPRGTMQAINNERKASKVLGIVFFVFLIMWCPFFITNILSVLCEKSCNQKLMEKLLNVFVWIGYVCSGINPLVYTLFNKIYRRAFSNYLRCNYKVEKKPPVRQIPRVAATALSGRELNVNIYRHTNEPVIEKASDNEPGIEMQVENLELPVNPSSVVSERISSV
Procedure: [^125I]-(±)DOI binding experiments are carried out in SPA 96-well format. Membranes used in this assay are prepared from AV-12 cells stably expressing recombinant 5-HT2C receptor (human). The incubation is initiated by the addition of a mixture of WGA PVT SPA beads (0.5 mg/well, Perkin Elmer (MA, USA), RPNQ0001) and 2.5 μg membranes to assay buffer (50 mM Tris-HCl, 10 mM MgCl2, 0.5 mM EDTA, 10 μM pargyline, 0.1% ascorbic acid, pH7.4) containing 0.2 nM [[^125I]-(±)DOI and varying concentrations of the test compound (10 point concentration response curves). Non-specific binding is determined in the presence of 20 μM 1-(1-naphthyl) piperazine. Samples are incubated for 4 hr. at room temperature (22° C.) and then read in a Microbeta® Trilux.
Binding data analysis Curves are evaluated using a 4-parameter logistic nonlinear equation to obtain the concentration of competitor causing 50% inhibition of radioligand binding (IC50). Equilibrium dissociation constants (Ki) are calculated according to the equation Ki=IC50/(1+L/Kd), where L equals the concentration of radioligand used in the experiment and Kd equals the equilibrium dissociation constant of the radioligand for the receptor, determined from standard saturation analysis or homologous competition experiments. […]

Chain of Adrenergic alpha1B (P35368 whole entry): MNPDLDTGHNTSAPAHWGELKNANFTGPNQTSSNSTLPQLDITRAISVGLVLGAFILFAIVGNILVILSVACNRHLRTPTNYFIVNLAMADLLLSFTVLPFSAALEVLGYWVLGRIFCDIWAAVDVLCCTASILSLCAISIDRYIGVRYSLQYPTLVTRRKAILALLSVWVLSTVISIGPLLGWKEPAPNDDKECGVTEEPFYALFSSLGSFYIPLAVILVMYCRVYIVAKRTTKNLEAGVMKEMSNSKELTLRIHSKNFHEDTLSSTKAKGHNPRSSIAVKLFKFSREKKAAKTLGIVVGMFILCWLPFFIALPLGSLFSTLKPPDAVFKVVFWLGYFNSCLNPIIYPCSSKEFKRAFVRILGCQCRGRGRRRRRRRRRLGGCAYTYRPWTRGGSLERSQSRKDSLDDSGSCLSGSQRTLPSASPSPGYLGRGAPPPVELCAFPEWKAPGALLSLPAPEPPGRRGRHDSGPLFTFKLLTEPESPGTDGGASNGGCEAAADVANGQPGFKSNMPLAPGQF

`Cc1ccc2c(c1)Oc1sc(C3CC3)cc1C(N1CCN(CC(C)(C)C(=O)O)CC1)=N2` [Example 2, 3-[4-(2-Cyclopropyl-8-methyl-thieno[2,3-b][1,5]benzoxazepin-4-yl)piperazin-1-yl]-2,2-dimethyl-propanoic acid dihydrochloride] was tested, and the Ki (Adrenergic alpha1B) was > 15500 nM, the Ki (5-HT6) was > 5830 nM and the Ki (Norepinephrine Transport) was > 671 nM. The ED50 (5-HT2A Receptor) was 0.41 mg/kg, the Ki (Adrenergic alpha2C) was 1380 nM and the Ki (Dopamine D3) was > 6280 nM. For the same compound, the Ki [1] was 493 nM.
